Reference: patent US20100305068A1, “COMPOUNDS AND METHODS FOR MODULATING PROTEIN TRAFFICKING” (priority 2006, published 2010)
Like-named read-outs stand apart in the source and are kept apart here.

Tested on: pdr5 ypt1^ts cells
Test: microbe, parasite or virus in culture
Type: cell-based, yeast
Conditions: for minimal effective concentration: Saccharomyces cerevisiae, lowest concentration tested giving growth above the 0 μM background, read-out: ypt1-ts MRC (minimal rescue concentration); for minimal effective concentration / optical density, ypt1-ts, 0.39 / optical density, ypt1-ts, 0.78 / optical density, ypt1-ts, 1.56 / optical density, ypt1-ts, 3.13 / optical density, ypt1-ts, 6.25 / optical density, ypt1-ts, 12.5 / optical density, ypt1-ts, 25: Table 2; for optical density, ypt1-ts, 0.39: 0.39 μM compound; for optical density, ypt1-ts, 0.39 / optical density, ypt1-ts, 0.78 / optical density, ypt1-ts, 1.56 / optical density, ypt1-ts, 3.13 / optical density, ypt1-ts, 6.25 / optical density, ypt1-ts, 12.5 / optical density, ypt1-ts, 25: background (0 μM) 0.058; for optical density, ypt1-ts, 0.78: 0.78 μM compound; for optical density, ypt1-ts, 1.56: 1.56 μM compound; for optical density, ypt1-ts, 3.13: 3.13 μM compound; for optical density, ypt1-ts, 6.25: 6.25 μM compound; for optical density, ypt1-ts, 12.5: 12.5 μM compound; for optical density, ypt1-ts, 25: 25 μM compound
Method in brief: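 Whole-cell yeast growth-rescue screen: pdr5 ypt1^ts cells (efflux pump inactivated), growth-arrested at 37° C., cultured with compounds at 37° C. Restoration of growth read by optical density.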

[1] = Table 3, 3.13 uM compound, 37° C., background (0 uM) 0.077
[2] = Table 3, 12.5 uM compound, 37° C., background (0 uM) 0.077
[3] = Table 3, 50 uM compound, 37° C., background (0 uM) 0.077

Row | SMILES | optical density, 3.13 uM [1] | optical density, 12.5 uM [2] | optical density, 50 uM [3] | minimal effective concentration (37° C.) [µM] | optical density, ypt1-ts, 0.39 (37° C.) | optical density, ypt1-ts, 0.78 (37° C.) | optical density, ypt1-ts, 1.56 (37° C.) | optical density, ypt1-ts, 3.13 (37° C.) | optical density, ypt1-ts, 6.25 (37° C.) | optical density, ypt1-ts, 12.5 (37° C.) | optical density, ypt1-ts, 25 (37° C.) | optical density, 3.13 uM | optical density, 12.5 uM | optical density, 50 uM
1 | Cc1c(O)c(O)cc2c1CC=C1[C@@]2(C)CC[C@@]2(C)C3C[C@](C)(C(=O)O)CC[C@]3(C)CC[C@]12C (stereo partly shown) [DIHYDRO- CELASTROL] | 0.119 | 0.526 | 0.33 |  |  |  |  |  |  |  |  |  |  | 
2 | COC(=O)C[C@H]1C(C)(C)[C@@H](OC(C)=O)[C@@H]2CC3C(CC[C@]4(C)C3CC(=O)O[C@H]4c3ccoc3)[C@]1(C)C2=O (stereo partly shown) [DIHYDRO- FISSINOLIDE] | 0.079 | 0.085 | 0.308 |  |  |  |  |  |  |  |  |  |  | 
3 | CC(=O)O[C@@H]1c2c(ccc3ccc(=O)oc23)OC(C)(C)[C@@H]1OC(=O)CC(C)C [DIHYDROSAMIDIN] |  |  |  | 12.5 | 0.091 | 0.068 | 0.079 | 0.105 | 0.097 | 0.14 | 0.221 |  |  | 
4 | COc1ccc(C(=O)c2ccccc2O)c(O)c1 [DIOXY- BENZONE, reference compound] | 0.088 | 0.12 | 0.579 |  |  |  |  |  |  |  |  |  |  | 
5 | CN(C)C(=O)Nc1ccc(Cl)c(Cl)c1 [DIURON] |  |  |  | 25 | 0.082 | 0.073 | 0.087 | 0.081 | 0.095 | 0.101 | 0.132 |  |  | 
6 | COc1ccc2c(c1OC)OC[C@@H](c1ccc(OC)c(OC)c1OC)C2 [DUARTIN, DIMETHYL ETHER] |  |  |  | 3.13 | 0.166 | 0.092 | 0.111 | 0.14 | 0.239 | 0.287 | 0.474 |  |  | 
7 | C[C@]12CCC3C(CC[C@H]4C[C@H](O)CC[C@]34C)C1CC[C@@H]2O (stereo partly shown) [EPIANDROSTANEDIOL] |  |  |  | 12.5 | 0.082 | 0.073 | 0.068 | 0.082 | 0.099 | 0.145 | 0.321 |  |  | 
8 | CCCSP(=O)(OCC)SCCC [ETHOPROP] |  |  |  |  |  |  |  |  |  |  |  | 0.118 | 0.134 | 0.251
9 | CC(=O)O[C@@H]1CC2C(C)(C)C(=O)C=C[C@]2(C)C2CC[C@@]3(C)[C@H](c4ccoc4)OC(=O)[C@H]4O[C@]43[C@@]21C (stereo partly shown) [GEDUNIN] | 0.109 | 0.231 | 0.183 |  |  |  |  |  |  |  |  |  |  | 
10 | Cc1ccc(C)c(OCCCC(C)(C)C(=O)O)c1 [GEMFIBROZIL, reference compound] |  |  |  | 3.13 | 0.106 | 0.082 | 0.1 | 0.219 | 0.442 | 0.615 | 0.358 |  |  | 
11 | COc1ccc2c(c1)O[C@H]1c3ccc(OC)cc3OC[C@@H]21 [HOMOPTEROCARPIN] |  |  |  | 25 | 0.083 | 0.064 | 0.065 | 0.071 | 0.09 | 0.117 | 0.44 |  |  | 
12 | CC(C)c1c(O)ccc2c1CCC1[C@@](C)(CO)CCC[C@]21C (stereo partly shown) [HYDROXY (19)TOTAROL] |  |  |  | 12.5 | 0.098 | 0.076 | 0.085 | 0.106 | 0.125 | 0.407 | 0.515 |  |  | 
13 | CCOC(=O)c1c(C)cc(O)c(C=O)c1O [H[…], ETHYL ESTER] |  |  |  | 3.13 | 0.104 | 0.078 | 0.105 | 0.135 | 0.204 | 0.621 | 0.645 |  |  | 
14 | CC(C)=CCOc1c2occc2cc2ccc(=O)oc12 [IMPERATORIN] |  |  |  | 12.5 | 0.084 | 0.064 | 0.066 | 0.073 | 0.082 | 0.147 | 0.244 |  |  | 
15 | COc1ccc(-c2coc3c(OC)c(OC)cc(O)c3c2=O)cc1 [ISO- TECTORIGENIN, 7-METHYL ETHER] | 0.09 | 0.147 | 0.595 |  |  |  |  |  |  |  |  |  |  | 
16 | COc1ccc(C2CC(=O)c3ccc(OC)cc3O2)cc1 (stereo not shown) [LIQUIRITI- GENIN DIMETHYL ETHER] | 0.086 | 0.13 | 0.364 |  |  |  |  |  |  |  |  |  |  | 
17 | CCOC(=O)N1CCC(=C2c3ccc(Cl)cc3CCc3cccnc32)CC1 [LORATADINE, reference compound] |  |  |  | 25 |  |  |  |  |  |  |  |  |  | 
18 | Oc1ccc2c(c1)OCC1c3cc4c(cc3OC21)OCO4 (stereo not shown) [MAACKIAIN] |  |  |  | 25 | 0.084 | 0.073 | 0.076 | 0.103 | 0.09 | 0.104 | 0.209 |  |  | 
19 | CC(=O)[C@H]1CCC2C3C[C@H](C)C4=CC(=O)CC[C@]4(C)C3[C@@H](O)C[C@@]21C (stereo partly shown) [MEDRY- SONE, reference compound] | 0.114 | 0.165 | 0.266 |  |  |  |  |  |  |  |  |  |  | 
20 | CC(=O)O[C@]1(C(C)=O)CC[C@H]2[C@@H]3C=C(C)C4=CC(=O)CC[C@]4(C)[C@H]3CC[C@@]21C [MEGESTROL ACETATE, reference compound] | 0.222 | 0.341 | 0.202 |  |  |  |  |  |  |  |  |  |  | 
21 | COc1c2occc2cc2ccc(=O)oc12 [METHOX- SALEN, reference compound] | 0.124 | 0.25 | 0.38 |  |  |  |  |  |  |  |  |  |  | 
22 | COc1cc(C)c2c(=O)cc(-c3ccccc3)oc2c1 [METHOXYVONE] |  |  |  | 12.5 | 0.095 | 0.09 | 0.09 | 0.105 | 0.114 | 0.142 | 0.258 |  |  | 
23 | CCOC(=O)c1c(C)cc(O)c(C)c1O [METHYL[…], ETHYL ESTER] |  |  |  | 25 | 0.082 | 0.073 | 0.072 | 0.084 | 0.097 | 0.119 | 0.259 |  |  | 
24 | CCN(CC)CCNC(=O)c1cc(Cl)c(N)cc1OC.Cl [METO- […]- CHLORIDE, reference compound] | 0.099 | 0.158 | 0.555 |  |  |  |  |  |  |  |  |  |  | 
25 | COC(=O)C[C@H]1C(C)(C)C(=O)[C@@H]2CC3=C4CC(=O)O[C@@H](c5ccoc5)[C@]4(C)CCC3[C@]1(C)C2=O (stereo partly shown) [MEXICANOLIDE] |  |  |  | 6.25 | 0.092 | 0.069 | 0.076 | 0.105 | 0.216 | 0.377 | 0.573 |  |  | 
26 | O=C1c2c(O)ccc(O)c2C(=O)c2c(NCCNCCO)ccc(NCCNCCO)c21 [MITO- XANTHRONE HYDRO- CHLORIDE, reference compound] | 0.149 | 0.132 | 0.313 |  |  |  |  |  |  |  |  |  |  | 
27 | CCOC(=O)C1=C(C)NC(C)=C(C(=O)OC)C1c1cccc([N+](=O)[O-])c1 (stereo not shown) [NITRENDIPINE, reference compound] |  |  |  | 3.13 | 0.11 | 0.089 | 0.103 | 0.143 | 0.309 | 0.403 | 0.481 |  |  | 
28 | COc1ccc(CC(=O)c2ccc(O)cc2O)cc1 [ONONETIN] |  |  |  | 6.25 | 0.097 | 0.08 | 0.096 | 0.111 | 0.14 | 0.3 | 0.618 |  |  | 
29 | Clc1ccc(Cl)cc1 [PARA- DICHLORO- BENZENE] | 0.169 | 0.28 | 0.202 |  |  |  |  |  |  |  |  |  |  | 
30 | COc1c(C(C)C)oc2cc3oc(=O)ccc3cc12 [PEUCEDANIN] | 0.138 | 0.25 | 0.461 |  |  |  |  |  |  |  |  |  |  | 
